Test results from PMC11367503, “Exploring galectin interactions with human milk oligosaccharides and blood group antigens identifies BGA6 as a functional galectin-4 ligand” (The Journal of Biological Chemistry, 2024).
Where “and” joins values, the source holds several entries; their conditions need not be identical. Equal entries are not always repeated.

T1: human Gal-4 (Homo sapiens, UniProt P56470)
T1 construct: His6-SUMO (N, cleaved yes); made in house; host or cells: Escherichia coli BL21 (DE3)
T1 sequence (P56470 1-323): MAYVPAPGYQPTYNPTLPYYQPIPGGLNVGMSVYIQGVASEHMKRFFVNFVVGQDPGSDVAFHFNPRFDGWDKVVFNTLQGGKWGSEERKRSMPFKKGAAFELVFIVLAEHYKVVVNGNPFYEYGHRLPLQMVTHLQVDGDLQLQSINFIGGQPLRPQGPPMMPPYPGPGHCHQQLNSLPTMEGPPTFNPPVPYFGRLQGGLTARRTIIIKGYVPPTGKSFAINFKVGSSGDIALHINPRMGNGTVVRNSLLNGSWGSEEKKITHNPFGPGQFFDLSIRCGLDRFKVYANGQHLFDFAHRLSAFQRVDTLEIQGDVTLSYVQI

T2: human Gal-12 (Homo sapiens, UniProt Q96DT0)
T2 construct: To obtain full-length human Gal-12, we adapted our previously optimized procedure for murine Gal-12; made in house; host or cells: Escherichia coli Rosetta 2 (DE3)
T2 sequence (Q96DT0 1-336): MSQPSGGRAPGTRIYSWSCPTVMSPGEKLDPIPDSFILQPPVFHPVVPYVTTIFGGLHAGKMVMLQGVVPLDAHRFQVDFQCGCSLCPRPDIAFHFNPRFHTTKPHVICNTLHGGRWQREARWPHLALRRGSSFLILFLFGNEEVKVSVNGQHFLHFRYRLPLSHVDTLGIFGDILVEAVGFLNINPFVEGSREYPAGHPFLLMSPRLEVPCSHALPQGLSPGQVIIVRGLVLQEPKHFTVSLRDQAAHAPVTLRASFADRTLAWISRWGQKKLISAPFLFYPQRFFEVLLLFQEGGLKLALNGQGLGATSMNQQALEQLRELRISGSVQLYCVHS


Columns and labels:
human Gal-3 = target: T3, human Gal-3 (Homo sapiens, UniProt P17931); experiment: Competitive solid-phase assay (SPA), immobilized asialofetuin, Gal-3; assay type: binding; conditions: mean ± S.D., three independent experiments
T3 construct: made in house; host or cells: Escherichia coli BL21 (DE3)
Protocol: (§1) The assay was adapted from Rapoport et al. (2010) ([88]). Briefly, 96-well plates (flat-bottom) were coated with 10 μg/ml asialofetuin (ASF, Sigma-Aldrich) in sodium carbonate buffer (pH 9.6) and incubated overnight at 4 °C. Then, wells were washed three times with 100 μl/well PBS-Tween 0.05% (w/v) and blocked with 100 μl/well PBS-bovine serum albumin (BSA) 2% (1 h, room temperature (RT)) in a humid chamber. Meanwhile, equal volumes of human recombinant Gal-1, -3, -4, -7, and -12 (20–40 μg/ml) in PBS-BSA 0.3% buffer were preincubated with the corresponding inhibitors in serial dilutions (2 h, 37 °C). After washing, galectins were detected using the corresponding antigalectin primary detection antibodies in PBS-BSA 0.3% w/v (1 h at RT). For Gal-1, wells were incubated with an in-house purified 100 ng/ml biotinylated rabbit anti–human Gal-1 polyclonal immunoglobulin G. For Gal-3, -4, and -7, a 1:500 dilution of the corresponding biotinylated anti-human galectin antibodies was used (BAF1154, BAF1227, and MAB13391, respectively, R&D Systems). For Gal-12, a rabbit anti-human Gal-12 polyclonal antibody (Santa Cruz Biotechnology, 1:700) was used. For Gal-1, -3, -4, and -7, plates were rinsed three times before adding 0.33 μg/ml horseradish peroxidase (HRP)-labeled streptavidin (Sigma-Aldrich) for 30 min. For Gal-12, an anti-rabbit secondary antibody conjugate coupled to HRP was incubated for 1 h at RT in PBS-BSA 0.3% w/v. After washing, 100 μl TMB solution (0.1 mg/ml tetramethylbenzidine and 0.06% H2O2 in citrate-phosphate buffer, pH 5.0) was added to plates. The reaction was stopped by adding a 2N H2SO4 solution. Absorbance was determined at 450 nm in a Multiskan MS microplate reader (Thermo Fisher Scientific).

human Gal-4 [1] = target: T1, human Gal-4; experiment: Inhibition of Gal-4-driven IL-6 secretion by activated PBMCs (IL-6 ELISA); assay type: cell-based; conditions: Gal-4 50 or 100 μg/ml; BGA6 0.5, 1, 2.5 and 5 mM; 72 h; anti-CD3/CD28 activated PBMCs
Protocol: (§2) PBMCs were isolated from anonymous healthy volunteer buffy coats (Fundación Hemocentro Blood Bank, Buenos Aires, Argentina), using Ficoll-Hypaque density gradient (Lymphoprep). The samples were then centrifuged at 1500 rpm for 25 min, and the interface corresponding to mononuclear cells was carefully removed and diluted with PBS supplemented with 2% fetal bovine serum. To reduce platelet contamination, three washing steps with PBS 2% fetal bovine serum were performed, and freshly isolated PBMCs were subsequently resuspended in complete RPMI medium. To obtain a bead to T-cell ratio of 1:1, approximately 16 × 10^4 PBMCs were activated with 2 μl of Dynabeads Human T-Activator CD3/CD28 (Gibco). After 24 h stimulation at 37 °C and 5% CO2, cells were incubated with human recombinant Gal-4 (25, 50, or 100 μg/ml) in the absence or presence of BGA6 (0.5, 1, 2.5, and 5 mM) for an additional time period of 72 h.
(§3) Human IL-6 was determined in supernatants from activated PBMCs exposed or not to Gal-4 in the absence or presence of BGA6 using specific ELISA kits (BD Biosciences), according to the manufacturer's instructions. Briefly, 96-well plates (Costar) were coated with capture antibody during 18 h at 4 °C. […] Reaction was stopped with 2N H2SO4, and the absorbance was measured at 450 nm using a plate spectrophotometer (Multiskan).

human Gal-7 = target: T4, human Gal-7 (Homo sapiens, UniProt P47929); experiment: Competitive solid-phase assay (SPA), immobilized asialofetuin, Gal-7; assay type: binding; conditions: competitive SPA, immobilized asialofetuin; mean ± S.D., three independent experiments
T4 construct: made in house; host or cells: Escherichia coli BL21 (DE3)
Protocol: as §1

human Gal-1 = target: T5, human Gal-1 (Homo sapiens, UniProt P09382); experiment: Competitive solid-phase assay (SPA), immobilized asialofetuin, Gal-1; assay type: binding; conditions: mean ± S.D., three independent experiments
T5 construct: made in house; host or cells: Escherichia coli BL21 (DE3)
Protocol: as §1

human Gal-4 [2] = target: T1, human Gal-4; experiment: Isothermal titration calorimetry (ITC), Gal-4; assay type: binding; conditions: Gal-4, PBS, 298 K
Protocol: All ITC experiments were performed by using a NanoITC (TA Instruments) under previously optimized conditions ([89]). A typical titration involved 20 injections at 300 s intervals of 2.5 μl aliquots of a 2.5 to 10 mM ligand solution into the sample cell (volume 200 μl) containing the different galectins (30–100 μM). The solutions were prepared by dissolving the glycan ligands in degassed PBS buffer at 298 K. The titration cell was continuously stirred at 300 rev/min. The heats of dilution of the ligands in the buffer were subtracted from the titration data. […] Fitting was performed using the Nano Analyze software (TA Instruments; https://www.tainstruments.com/itcrun-dscrun-nanoanalyze-software/) to determine association constants (Ka) and the enthalpy change (ΔH). No reliable fit of the thermodynamic parameters could be obtained for binding affinities above 80 μM.

human Gal-12 = target: T2, human Gal-12; experiment: Competitive solid-phase assay (SPA), immobilized asialofetuin, Gal-12; assay type: binding; conditions: mean ± S.D., three independent experiments
Protocol: as §1

human Gal-4 [3] = target: T1, human Gal-4; experiment: Competitive solid-phase assay (SPA), immobilized asialofetuin, Gal-4; assay type: binding; conditions: mean ± S.D., three independent experiments
Protocol: as §1

Gal-1 = target: Gal-1; design: method as in PMID 15476813; conditions: at 298 K; read-out: dissociation constant reported for Gal-1/LacNAc interactions; cited from earlier work
human PBMCs = experiment: IL-6 secretion by anti-CD3/CD28-activated PBMCs cultured with Gal-4 (IL-6 ELISA); assay type: cell-based; conditions: Gal-4 25, 50 or 100 μg/ml, 72 h
Protocol: as §2, §3

T4 sequence (P47929 whole entry): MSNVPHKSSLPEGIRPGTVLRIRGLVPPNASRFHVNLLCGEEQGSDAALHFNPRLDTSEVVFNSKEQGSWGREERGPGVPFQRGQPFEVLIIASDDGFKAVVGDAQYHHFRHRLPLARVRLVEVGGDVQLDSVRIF
T5 sequence (P09382 whole entry): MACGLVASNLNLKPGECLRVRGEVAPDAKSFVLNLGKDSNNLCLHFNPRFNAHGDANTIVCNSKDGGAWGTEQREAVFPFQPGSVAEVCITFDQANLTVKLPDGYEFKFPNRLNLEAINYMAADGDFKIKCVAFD
T3 sequence (P17931 whole entry): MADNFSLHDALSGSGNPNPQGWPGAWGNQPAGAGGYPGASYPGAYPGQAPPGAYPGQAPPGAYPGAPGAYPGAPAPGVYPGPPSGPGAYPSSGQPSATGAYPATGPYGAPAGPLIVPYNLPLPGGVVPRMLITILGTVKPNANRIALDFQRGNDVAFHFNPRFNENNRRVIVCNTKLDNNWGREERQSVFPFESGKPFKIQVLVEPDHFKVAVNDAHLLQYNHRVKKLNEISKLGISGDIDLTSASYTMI

IC50 (human Gal-3)	Gal-4-driven IL-6 secretion by human activated PBMCs in presence of BGA6 (human Gal-4 [1])	IC50 (human Gal-7)	IC50 (human Gal-1)	-TΔS (human Gal-4 [2])	ΔH (human Gal-4 [2])	Kd (human Gal-4 [2]; n fixed to 1.00)	IC50 (human Gal-12)	IC50 (human Gal-4 [3])	Molecule	Kd (Gal-1)	secretion of IL-6 by human-activated T lymphocytes in PBMCs (human PBMCs)
1500 ± 300 µM	effectively suppressed	5400 ± 700 µM	5000 µM and 5020 µM	7.4 ± 0.6 kJ/mol	-32 ± 3 kJ/mol	51 ± 3 µM	27100 ± 1000 µM	200 ± 100 µM	CC(=O)NC1C(OC2C(O)C(CO)OC(OC3C(CO)OC(O)C(O)C3O)C2OC2OC(C)C(O)C(O)C2O)OC(CO)C(O)C1O (stereo not shown) [BGA6, blood group A antigen tetraose 6]		
2000 ± 200 µM		2500 µM and 2490 µM	1300 ± 100 µM				36000 ± 900 µM	25800 µM	CC(=O)NC1C(O)OC(CO)C(OC2OC(CO)C(O)C(O)C2O)C1O (stereo not shown) [LacNAc, N-acetyllactosamine]	76 µM	
									Gal-4: recombinant full-length human galectin-4, tandem-repeat type lectin expressed in E. coli (protein, left off: His6, N-terminal, cleaved | SUMO, N-terminal, cleaved, recombinant full-length human galectin-4, tandem-repeat type lectin expressed in E. coli) MAYVPAPGYQPTYNPTLPYYQPIPGGLNVGMSVYIQGVASEHMKRFFVNFVVGQDPGSDVAFHFNPRFDGWDKVVFNTLQGGKWGSEERKRSMPFKKGAAFELVFIVLAEHYKVVVNGNPFYEYGHRLPLQMVTHLQVDGDLQLQSINFIGGQPLRPQGPPMMPPYPGPGHCHQQLNSLPTMEGPPTFNPPVPYFGRLQGGLTARRTIIIKGYVPPTGKSFAINFKVGSSGDIALHINPRMGNGTVVRNSLLNGSWGSEEKKITHNPFGPGQFFDLSIRCGLDRFKVYANGQHLFDFAHRLSAFQRVDTLEIQGDVTLSYVQI		significant and dose-dependent increase
